Assay results: ChEMBL document CHEMBL4020826 (J Med Chem, 2018)

How the values were obtained:
[1] = Drug metabolism in human liver microsomes at 4 uM; type: ADME, microsome; conditions: read-out: Drug metabolism
[2] = Plasma concentration in Sprague-Dawley rat at 5 mg/kg/day, sc administered via infusion measured after 6 hrs post dose by LC-MS/MS analysis; type: ADME, organism-based
[3] = Drug level in Sprague-Dawley rat CSF at 0.3 mg/kg, sc administered as single dose measured after 1 hr post dose by LC-MS/MS analysis; type: ADME, organism-based, Cerebrospinal fluid; conditions: read-out: Drug uptake
[4] = Half life in Sprague-Dawley rat at 1 mg/kg, iv measured over 8 hrs by LC-MS/MS analysis; type: ADME, organism-based; conditions: in vivo
[5] = Plasma concentration in Sprague-Dawley rat at 1.5 mg/kg/day, sc administered via infusion measured after 12 hrs post dose by LC-MS/MS analysis; type: ADME, organism-based
[6] = molecular target: T1, Metabotropic glutamate receptor 2 (Homo sapiens, UniProt Q14416); test: Agonist activity at human mGlu2 receptor expressed in HEK cells assessed as inhibition of forskolin-stimulated cAMP formation after 20 mins by HTRF assay; type: functional, cell-based
T1 sequence (Q14416 whole entry): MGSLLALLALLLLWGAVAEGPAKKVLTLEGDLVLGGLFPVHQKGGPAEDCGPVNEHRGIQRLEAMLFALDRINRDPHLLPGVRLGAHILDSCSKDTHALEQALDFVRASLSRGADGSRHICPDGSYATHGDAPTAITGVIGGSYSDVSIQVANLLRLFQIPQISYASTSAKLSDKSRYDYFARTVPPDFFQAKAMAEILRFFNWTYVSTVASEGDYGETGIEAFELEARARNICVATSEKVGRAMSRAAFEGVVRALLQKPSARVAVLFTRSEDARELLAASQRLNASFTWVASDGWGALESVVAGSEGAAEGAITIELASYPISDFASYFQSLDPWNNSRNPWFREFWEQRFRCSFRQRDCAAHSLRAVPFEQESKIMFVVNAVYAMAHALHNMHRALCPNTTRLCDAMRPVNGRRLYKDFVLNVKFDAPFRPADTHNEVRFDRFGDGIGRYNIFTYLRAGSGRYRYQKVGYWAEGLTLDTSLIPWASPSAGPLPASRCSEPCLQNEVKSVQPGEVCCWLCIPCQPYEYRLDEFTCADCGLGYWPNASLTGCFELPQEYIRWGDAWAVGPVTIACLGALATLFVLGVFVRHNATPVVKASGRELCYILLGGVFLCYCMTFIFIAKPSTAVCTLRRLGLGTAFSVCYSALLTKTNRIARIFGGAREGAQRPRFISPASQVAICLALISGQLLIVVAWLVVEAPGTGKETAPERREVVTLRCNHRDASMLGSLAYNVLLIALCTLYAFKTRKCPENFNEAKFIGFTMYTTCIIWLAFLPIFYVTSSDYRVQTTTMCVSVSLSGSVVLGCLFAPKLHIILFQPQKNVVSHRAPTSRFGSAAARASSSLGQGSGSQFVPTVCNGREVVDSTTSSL

[7] = Plasma concentration in Sprague-Dawley rat at 0.1 mg/kg, sc administered as single dose measured after 1 hr post dose by LC-MS/MS analysis; type: ADME, organism-based
[8] = Plasma concentration in Sprague-Dawley rat at 3 mg/kg, sc administered as single dose measured after 1 hr post dose by LC-MS/MS analysis; type: ADME, organism-based
[9] = molecular target: T2, Metabotropic glutamate receptor 4 (Homo sapiens, UniProt Q14833); test: Agonist activity at recombinant human mGlu4 receptor expressed in hamster AV12 cells co-expressing rat EAAT1/Galpha15 assessed as induction of increase in Ca2+ flux after 2.5 mins by Fluo-3 AM dye-based FLIPR assay; type: functional, cell-based
T2 sequence (Q14833 whole entry, the tested form may be a part): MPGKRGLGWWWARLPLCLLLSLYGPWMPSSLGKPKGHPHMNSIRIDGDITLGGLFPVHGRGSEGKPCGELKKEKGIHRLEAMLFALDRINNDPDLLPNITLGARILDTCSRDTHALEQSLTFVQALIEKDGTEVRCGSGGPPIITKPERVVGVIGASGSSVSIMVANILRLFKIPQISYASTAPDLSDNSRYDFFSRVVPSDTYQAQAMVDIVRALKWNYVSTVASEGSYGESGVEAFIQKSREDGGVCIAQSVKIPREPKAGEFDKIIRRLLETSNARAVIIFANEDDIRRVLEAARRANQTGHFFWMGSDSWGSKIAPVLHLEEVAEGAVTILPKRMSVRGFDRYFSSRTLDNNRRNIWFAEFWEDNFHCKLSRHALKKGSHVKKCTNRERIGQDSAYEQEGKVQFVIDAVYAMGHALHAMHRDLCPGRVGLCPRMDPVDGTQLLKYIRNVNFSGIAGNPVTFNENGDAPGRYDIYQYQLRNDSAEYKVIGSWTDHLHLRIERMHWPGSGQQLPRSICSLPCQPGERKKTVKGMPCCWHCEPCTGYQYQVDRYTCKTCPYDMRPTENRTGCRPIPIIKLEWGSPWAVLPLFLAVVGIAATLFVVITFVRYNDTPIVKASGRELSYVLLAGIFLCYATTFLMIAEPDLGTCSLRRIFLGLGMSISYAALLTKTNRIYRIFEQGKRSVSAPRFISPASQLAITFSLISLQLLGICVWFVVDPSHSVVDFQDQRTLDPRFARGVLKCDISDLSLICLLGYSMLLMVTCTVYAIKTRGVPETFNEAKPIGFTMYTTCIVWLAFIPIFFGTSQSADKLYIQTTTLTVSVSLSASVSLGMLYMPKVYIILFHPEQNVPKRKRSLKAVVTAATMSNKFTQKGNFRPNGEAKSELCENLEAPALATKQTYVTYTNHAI

[10] = Plasma concentration in Sprague-Dawley rat at 0.5 mg/kg/day, sc administered via infusion measured after 48 hrs post dose by LC-MS/MS analysis; type: ADME, organism-based
[11] = molecular target: T1, Metabotropic glutamate receptor 2; test: Displacement of [3H]-LY459477 from recombinant human mGlu2 receptor expressed in HEK cell membranes after 90 mins by liquid scintillation counting
[12] = molecular target: T2, Metabotropic glutamate receptor 4; test: Antagonist activity at recombinant human mGlu4 receptor expressed in hamster AV12 cells co-expressing rat EAAT1/Galpha15 assessed as inhibition of glutamate induced increase in Ca2+ flux after 2.5 mins by Fluo-3 AM dye-based FLIPR assay; type: functional, cell-based
[13] = Plasma concentration in Sprague-Dawley rat at 1.5 mg/kg/day, sc administered via infusion measured after 72 hrs post dose by LC-MS/MS analysis; type: ADME, organism-based
[14] = Plasma concentration in Sprague-Dawley rat at 1 mg/kg, sc administered as single dose measured after 1 hr post dose by LC-MS/MS analysis; type: ADME, organism-based
[15] = molecular target: T3, Metabotropic glutamate receptor 1 (Homo sapiens, UniProt Q13255); test: Antagonist activity at recombinant human mGlu1 receptor expressed in hamster AV12 cells co-expressing rat EAAT1/Galpha15 assessed as inhibition of glutamate induced increase in Ca2+ flux after 2.5 mins by Fluo-3 AM dye-based FLIPR assay; type: functional, cell-based
T3 sequence (Q13255 whole entry): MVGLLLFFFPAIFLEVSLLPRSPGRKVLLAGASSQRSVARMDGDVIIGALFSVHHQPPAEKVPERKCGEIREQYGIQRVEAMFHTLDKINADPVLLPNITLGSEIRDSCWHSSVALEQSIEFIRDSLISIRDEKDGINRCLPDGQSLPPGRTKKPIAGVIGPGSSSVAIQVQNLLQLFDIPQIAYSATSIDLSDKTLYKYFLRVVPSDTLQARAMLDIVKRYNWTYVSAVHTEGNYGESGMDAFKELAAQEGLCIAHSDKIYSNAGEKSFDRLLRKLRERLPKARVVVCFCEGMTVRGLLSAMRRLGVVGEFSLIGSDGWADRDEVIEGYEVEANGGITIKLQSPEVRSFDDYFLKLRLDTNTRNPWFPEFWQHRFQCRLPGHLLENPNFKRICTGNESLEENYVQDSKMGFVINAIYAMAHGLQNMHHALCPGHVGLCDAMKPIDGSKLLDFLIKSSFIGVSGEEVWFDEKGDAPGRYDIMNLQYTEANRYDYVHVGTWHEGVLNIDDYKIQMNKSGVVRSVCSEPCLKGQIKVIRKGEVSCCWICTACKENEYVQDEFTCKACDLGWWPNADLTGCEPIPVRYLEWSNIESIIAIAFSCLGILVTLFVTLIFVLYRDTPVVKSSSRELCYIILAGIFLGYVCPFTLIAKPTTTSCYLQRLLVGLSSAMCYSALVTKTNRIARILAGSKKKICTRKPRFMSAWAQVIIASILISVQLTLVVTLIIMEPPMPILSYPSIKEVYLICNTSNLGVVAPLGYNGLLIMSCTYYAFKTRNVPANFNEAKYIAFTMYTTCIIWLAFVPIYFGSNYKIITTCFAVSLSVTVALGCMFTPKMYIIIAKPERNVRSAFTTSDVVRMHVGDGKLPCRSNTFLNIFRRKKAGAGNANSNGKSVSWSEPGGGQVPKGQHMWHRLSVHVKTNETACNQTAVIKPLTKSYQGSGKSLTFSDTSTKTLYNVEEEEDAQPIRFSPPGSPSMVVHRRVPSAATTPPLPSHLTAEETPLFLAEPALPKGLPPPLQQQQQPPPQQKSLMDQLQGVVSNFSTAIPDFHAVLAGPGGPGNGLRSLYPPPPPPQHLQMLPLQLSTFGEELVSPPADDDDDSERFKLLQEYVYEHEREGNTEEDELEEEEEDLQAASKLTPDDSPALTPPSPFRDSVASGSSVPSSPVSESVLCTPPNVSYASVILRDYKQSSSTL

[16] = Clearance in Sprague-Dawley rat at 1 mg/kg, iv measured over 8 hrs by LC-MS/MS analysis; type: ADME, organism-based; conditions: in vivo
[17] = molecular target: CYP2C9 (Homo sapiens, UniProt P11712); test: Inhibition of human CYP2C9 at 10 uM; type: ADME
[18] = Drug metabolism in dog liver microsomes at 4 uM; type: ADME, Canis lupus familiaris, microsome; conditions: read-out: Drug metabolism
[19] = Drug level in Sprague-Dawley rat CSF at 10 mg/kg, sc administered as single dose measured after 1 hr post dose by LC-MS/MS analysis; type: ADME, organism-based, Cerebrospinal fluid; conditions: read-out: Drug uptake
[20] = Plasma concentration in Sprague-Dawley rat at 5 mg/kg/day, sc administered via infusion measured after 48 hrs post dose by LC-MS/MS analysis; type: ADME, organism-based
[21] = Plasma concentration in Sprague-Dawley rat at 5 mg/kg/day, sc administered via infusion measured after 72 hrs post dose by LC-MS/MS analysis; type: ADME, organism-based
[22] = Bioavailability in Sprague-Dawley rat at 3 mg/kg, sc measured over 8 hrs by LC-MS/MS analysis; type: ADME, organism-based; conditions: in vivo
[23] = molecular target: T1, Metabotropic glutamate receptor 2; test: Agonist activity at recombinant human mGlu2 receptor expressed in hamster AV12 cells co-expressing rat EAAT1/Galpha15 assessed as induction of increase in Ca2+ flux after 2.5 mins by Fluo-3 AM dye-based FLIPR assay
[24] = Plasma concentration in Sprague-Dawley rat at 1.5 mg/kg/day, sc administered via infusion measured after 48 hrs post dose by LC-MS/MS analysis; type: ADME, organism-based
[25] = Drug metabolism in rat liver microsomes at 4 uM; type: ADME, microsome; conditions: read-out: Drug metabolism
[26] = molecular target: Metabotropic glutamate receptor 8 (Homo sapiens, UniProt O00222); test: Antagonist activity at recombinant human mGlu8 receptor expressed in hamster AV12 cells co-expressing rat EAAT1/Galpha15 assessed as inhibition of glutamate induced increase in Ca2+ flux after 2.5 mins by Fluo-3 AM dye-based FLIPR assay; type: functional, cell-based
[27] = Plasma concentration in Sprague-Dawley rat at 1.5 mg/kg/day, sc administered via infusion measured after 6 hrs post dose by LC-MS/MS analysis; type: ADME, organism-based
[28] = molecular target: Metabotropic glutamate receptor 6 (Homo sapiens, UniProt O15303); test: Agonist activity at human mGlu6 receptor expressed in hamster AV12 cells co-expressing rat EAAT1 assessed as inhibition of forskolin-stimulated cAMP formation after 20 mins by HTRF assay; type: functional, cell-based
[29] = Drug level in Sprague-Dawley rat CSF at 15 mg/kg/day, sc administered via infusion measured after 72 hrs post dose by LC-MS/MS analysis; type: ADME, organism-based, Cerebrospinal fluid; conditions: read-out: Drug uptake
[30] = molecular target: Group II metabotropic glutamate receptor (mGlu2/mGlu3) (Rattus norvegicus) (UniProt P31421+P31422); conditions: Sprague-Dawley
Sequence of Group II metabotropic glutamate receptor (mGlu2/mGlu3) (Rattus norvegicus) (P31421 whole entry, looked up): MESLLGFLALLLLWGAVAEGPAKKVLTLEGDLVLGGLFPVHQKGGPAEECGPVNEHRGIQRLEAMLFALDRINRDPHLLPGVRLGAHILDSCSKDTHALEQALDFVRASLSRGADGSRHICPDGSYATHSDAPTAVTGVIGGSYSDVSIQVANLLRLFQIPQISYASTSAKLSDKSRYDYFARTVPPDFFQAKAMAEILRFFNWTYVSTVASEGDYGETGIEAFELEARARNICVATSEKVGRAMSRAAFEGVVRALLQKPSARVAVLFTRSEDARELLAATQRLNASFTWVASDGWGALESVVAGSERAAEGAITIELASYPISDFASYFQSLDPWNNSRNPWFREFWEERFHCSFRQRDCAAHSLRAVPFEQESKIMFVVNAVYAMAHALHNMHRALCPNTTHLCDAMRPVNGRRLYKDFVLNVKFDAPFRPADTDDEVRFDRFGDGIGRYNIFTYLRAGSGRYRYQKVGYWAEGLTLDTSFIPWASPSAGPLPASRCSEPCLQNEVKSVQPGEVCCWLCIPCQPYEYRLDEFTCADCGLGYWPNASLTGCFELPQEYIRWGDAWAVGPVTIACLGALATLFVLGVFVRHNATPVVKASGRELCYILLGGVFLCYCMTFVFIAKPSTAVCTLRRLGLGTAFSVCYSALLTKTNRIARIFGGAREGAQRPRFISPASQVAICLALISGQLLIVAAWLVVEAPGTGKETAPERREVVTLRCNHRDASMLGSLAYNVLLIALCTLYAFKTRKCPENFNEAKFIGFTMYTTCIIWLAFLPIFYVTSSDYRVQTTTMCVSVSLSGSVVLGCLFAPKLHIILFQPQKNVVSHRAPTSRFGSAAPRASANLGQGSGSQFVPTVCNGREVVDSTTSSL
Sequence of Group II metabotropic glutamate receptor (mGlu2/mGlu3) (Rattus norvegicus) (P31422 whole entry, looked up): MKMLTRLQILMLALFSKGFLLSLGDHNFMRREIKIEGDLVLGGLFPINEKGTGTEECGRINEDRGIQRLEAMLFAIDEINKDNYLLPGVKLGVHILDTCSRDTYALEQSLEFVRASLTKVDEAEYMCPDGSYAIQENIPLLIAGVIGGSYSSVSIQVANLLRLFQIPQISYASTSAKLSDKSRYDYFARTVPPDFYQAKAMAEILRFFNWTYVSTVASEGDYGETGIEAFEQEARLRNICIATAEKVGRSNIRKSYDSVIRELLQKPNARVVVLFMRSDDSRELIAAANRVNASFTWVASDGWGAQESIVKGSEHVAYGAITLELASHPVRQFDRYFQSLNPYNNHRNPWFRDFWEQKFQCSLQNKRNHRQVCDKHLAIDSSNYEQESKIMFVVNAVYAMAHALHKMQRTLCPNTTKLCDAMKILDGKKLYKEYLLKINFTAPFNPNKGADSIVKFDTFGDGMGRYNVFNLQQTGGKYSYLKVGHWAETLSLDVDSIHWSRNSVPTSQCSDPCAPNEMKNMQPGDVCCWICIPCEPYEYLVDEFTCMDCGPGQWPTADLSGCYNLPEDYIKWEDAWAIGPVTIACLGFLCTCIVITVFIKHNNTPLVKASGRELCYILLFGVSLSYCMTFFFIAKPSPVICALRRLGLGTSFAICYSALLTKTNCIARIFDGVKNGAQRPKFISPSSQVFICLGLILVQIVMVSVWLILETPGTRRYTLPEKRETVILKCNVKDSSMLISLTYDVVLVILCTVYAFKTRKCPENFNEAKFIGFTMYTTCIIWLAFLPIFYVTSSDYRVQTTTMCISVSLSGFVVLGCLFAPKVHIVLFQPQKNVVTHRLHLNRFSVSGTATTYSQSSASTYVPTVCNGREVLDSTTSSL
Description: Agonist activity at mGlu2/3 receptor in Sprague-Dawley rat forebrain assessed as inhibition of spontaneous Ca2+ oscillations in cortical neurons after 300 secs by FLIPR assay

[31] = species: Rattus norvegicus; test: Drug metabolism in Sprague-Dawley rat assessed as (1S,2S,4S,5R,6S)-2-Amino-4-[(3-hydroxybenzoyl)amino]-bicyclo[3.1.0]hexane-2,6-dicarboxylic Acid formation measured over 24 hrs; type: ADME
[32] = Plasma concentration in Sprague-Dawley rat at 10 mg/kg, sc administered as single dose measured after 1 hr post dose by LC-MS/MS analysis; type: ADME, organism-based
[33] = Drug level in Sprague-Dawley rat CSF at 1.5 mg/kg/day, sc administered via infusion measured after 72 hrs post dose by LC-MS/MS analysis; type: ADME, organism-based, Cerebrospinal fluid; conditions: read-out: Drug uptake
[34] = molecular target: T3, Metabotropic glutamate receptor 1; test: Agonist activity at recombinant human mGlu1 receptor expressed in hamster AV12 cells co-expressing rat EAAT1/Galpha15 assessed as induction of increase in Ca2+ flux after 2.5 mins by Fluo-3 AM dye-based FLIPR assay; type: functional, cell-based
[35] = Half life in Sprague-Dawley rat at 3 mg/kg, sc measured over 8 hrs by LC-MS/MS analysis; type: ADME, organism-based; conditions: in vivo
[36] = Cmax in Sprague-Dawley rat at 3 mg/kg, sc measured over 8 hrs by LC-MS/MS analysis; type: ADME, organism-based; design: dose 3 mg/kg, route subcutaneous; conditions: in vivo
[37] = Plasma concentration in Sprague-Dawley rat at 15 mg/kg/day, sc administered via infusion measured after 6 hrs post dose by LC-MS/MS analysis; type: ADME, organism-based
[38] = Plasma concentration in Sprague-Dawley rat at 15 mg/kg/day, sc administered via infusion measured after 24 hrs post dose by LC-MS/MS analysis; type: ADME, organism-based

Compound: COc1cccc(C(=O)N[C@H]2C[C@@](N)(C(=O)O)[C@@H]3[C@@H](C(=O)O)[C@@H]32)c1
- metabolised at 4 µM [1]: 12.3%
- concentration at 6 h [2]: 1280 nM
- concentration at 1 h [3]: 6.91 nM
- half-life [4]: 3.1 h
- concentration at 12 h [5]: 389 nM
- EC50 [6]: 47.5 nM
- concentration at 1 h [7]: 286 nM
- concentration at 1 h [8]: 7180 nM
- EC50 [9]: 11800 nM
- concentration at 48 h [10]: 95.1 nM
- Ki [11]: 412 nM
- IC50 [12]: > 12500 nM
- concentration at 72 h [13]: 361 nM
- concentration at 1 h [14]: 1510 to 1580 nM
- IC50 [15]: > 12500 nM
- clearance [16]: 18.3 mL/min/kg
- inhibition at 10 µM [17]: 3.5%
- metabolised at 4 µM [18]: 28.9%
- concentration at 1 h [19]: 249 nM
- concentration at 48 h [20]: 871 nM
- concentration at 72 h [21]: 1310 nM
- bioavailability [22]: 121%
- EC50 [23]: 277 nM
- concentration at 48 h [24]: 224 nM
- metabolised at 4 µM [25]: 23%
- IC50 [26]: > 12500 nM
- concentration at 6 h [27]: 427 nM
- EC50 [28]: 1950 nM
- concentration at 72 h [29]: 86.7 nM
- EC50H [30]: 0.44 nM
- EC50L [30]: 43.6 nM
- Drug metabolism [31]: < 2.5 nM
- concentration at 1 h [32]: 25900 nM
- concentration at 72 h [33]: 7.5 nM
- EC50 [34]: > 25000 nM
- half-life [35]: 2.9 h
- Cmax [36]: 6780 nM
- concentration at 6 h [37]: 3840 nM
- concentration at 24 h [38]: 3170 nM
